According to article PMC10778980, “Profiling Novel Quinuclidine-Based Derivatives as Potential Anticholinesterase Drugs: Enzyme Inhibition and Effects on Cell Viability” (International Journal of Molecular Sciences, 2023):
“Also recorded” adds a separate entry of the source. Like-named read-outs stand apart in the source and are kept apart here.

Experiments:
human AChE = target: T1, human AChE (Homo sapiens, UniProt P22303); test: Reversible inhibition of AChE (Ellman's procedure, Hunter–Downs evaluation); format: biochemical; settings: for Ki: Ki ± standard error, 0.1, 0.2, 0.35 and 0.5 mM substrate ATCh, 25 °C, pH 7.4; for Ki (AChE)/Ki (BChE): selectivity ratio
T1 construct: The sources of human AChE and BChE were native erythrocytes and plasma, respectively; from tissue; host or cells: human erythrocytes from venous blood of a healthy volunteer
Description: (§1) Cholinesterase substrate acetylthiocholine (ATCh) and the thiol reagent 5,5′-dithiobis(2-nitrobenzoic acid) (DTNB) for the enzyme activity measurement were purchased from Sigma-Aldrich (St. Louis, MO, USA). The sources of human AChE and BChE were native erythrocytes and plasma, respectively, obtained from the blood of a healthy volunteer and in accordance with the approval of the Ethics Committee of the Institute for Medical Research and Occupational Health (approval number: 100-21/23-6). Erythrocytes and plasma were isolated from the whole blood and prepared according to a previously published procedure. Namely, venous blood was collected into a heparinized tube and centrifuged (at 4 °C, 20 min on 2500 rpm, Eppendorf centrifuge 5702R) to separate plasma from the erythrocytes. Plasma was removed and used as a source of BChE, while erythrocytes were washed twice with the 0.1 M sodium phosphate buffer, pH 7.4, in a volume corresponding to the initial volume of the whole blood. Both plasma and erythrocytes were frozen at −20 °C until use. Quinuclidine compounds were dissolved in dH2O as 10 or 100 mM; exceptionally, 3-hydroxyimino compounds with longer chains (C12−C16) were dissolved in DMSO as 100 mM solutions. Stock solutions were kept at 4 °C until use. Further dilutions were made in distilled water.
(§2) The reversible inhibition experiments followed a previously published procedure. Namely, the enzyme activity was measured in the presence of a wide range of quinuclidine compound concentrations and in the substrate range from 0.1 to 0.5 mM to confirm the type of compound binding. The activity was assayed following the Ellman’s procedure, with the modification in the wavelength used for detection of the TNB anion in the case of AChE activity measurement due to the interference of the hemoglobin, and according to Worek et al.. The assay was performed in 96-well plates on an Infinite M200PRO plate reader (Tecan Austria GmbH, Salzburg, Austria) at 25 °C. Each concentration was tested in triplicate or quadruplicate on each plate. The inhibition mixture contained 0.1 M sodium phosphate buffer, pH 7.4, enzyme (AChE or BChE), quinuclidine compound (0.2–400 μM final), DTNB (0.3 mM final), and ATCh (from 0.1 to 0.5 mM final) to start the reaction. The increase in absorbance was read at 436 nm for AChE and at 412 nm for BChE. The measured activity in the presence of compounds was corrected for the non-enzymatic hydrolysis of substrate ATCh, if detected. The reversible enzyme–quinuclidine complex dissociation constants (the inhibition constants) Ki were evaluated from the effect of the substrate concentration on the degree of inhibition according to the Hunter–Downs equation as described previously, taking into account only quinuclidine concentrations where 20–80% inhibition of the activity was observed.

human BChE = target: T2, human BChE (Homo sapiens, UniProt P06276); test: biochemical; settings: Ki ± standard error; 0.1, 0.2, 0.35 and 0.5 mM substrate ATCh; 25 °C, pH 7.4; read-out: Ki BChE
T2 construct: Plasma was removed and used as a source of BChE; from tissue; host or cells: human blood plasma from a healthy volunteer
Description: as §1, §2

SH-SY5Y cells [1] = test: Cytotoxicity assay (MTS) on SH-SY5Y; format: cell-based; settings: Homo sapiens
Experimental: (§3) SH-SY5Y cells were grown in DMEM F12 (Sigma-Aldrich, St. Louis, MO, USA) supplemented with 15% (v/v) fetal bovine serum (FBS), 2 mM glutamine, and 1% (v/v) non-essential amino acids (NEAA). HepG2 cells were grown in EMEM supplemented with 10% (v/v) FBS, 2 mM glutamine, and 1% (v/v) non-essential amino acids NEAA. All media and supplements were purchased from Sigma-Aldrich, Steinheim, Germany.
(§4) The procedure followed a previously described protocol.

HepG2 cells [2] = test: Cytotoxicity assay (MTS) on HepG2; format: cell-based; settings: Homo sapiens
Experimental: as §3, §4

SH-SY5Y cells [3] = test: Cell membrane integrity (LDH release) on SH-SY5Y; format: cell-based, human; settings: 4 h exposure, 12.5–200 µM
Experimental: (§5) Human neuroblastoma SH-SY5Y (ECACC 94030304) and human hepatocyte carcinoma HepG2 (ECACC 85011430) were used to evaluate in vitro dose- and time-dependent different cell effects. The SH-SY5Y cell line was selected as it represents a well-established model for studying neuronal cells, while HepG2 hepatocytes represent a liver model as a major organ participating in the metabolism of diverse compounds [31, 61, 62]. SH-SY5Y cells were grown in DMEM F12 (Sigma-Aldrich, St. Louis, MO, USA) supplemented with 15% (v/v) fetal bovine serum (FBS), 2 mM glutamine, and 1% (v/v) non-essential amino acids (NEAA). HepG2 cells were grown in EMEM supplemented with 10% (v/v) FBS, 2 mM glutamine, and 1% (v/v) non-essential amino acids NEAA. All media and supplements were purchased from Sigma-Aldrich, Steinheim, Germany.
(§6) Cell membrane integrity was determined after 4 h exposure to derivatives 3–5 and 10–12 by measuring the release of the intracellular lactate dehydrogenase (LDH), and the procedure followed a previously described protocol using The CytoTox-ONE™ Homogeneous Membrane Integrity Assay (Promega, Madison, WI, USA). Triton X-100 at a final concentration of 0.18% (v/v) (stock of 9% in water; Sigma-Aldrich, Steinheim, Germany) was used as a positive control to determine the maximal LDH release. Data were taken from at least two independent experiments (each treatment performed in duplicate) and plotted as a percentage of LDH release compared to the determined maximal LDH release, according to the manufacturer’s calculation protocol.

HepG2 cells [4] = test: Cell membrane integrity (LDH release) on HepG2; format: cell-based, human; settings: HepG2, 4 h exposure, 12.5–200 µM
Experimental: as §5, §6

SH-SY5Y cells [5] = test: Mitochondrial membrane potential (TMRE assay) on SH-SY5Y; format: cell-based, human; settings: 4 h exposure, LOAEL concentrations
Experimental: as §5
(§7) Mitochondrial membrane potential (ΔΨm) was determined using a cell-permeable, potential-sensitive cationic dye, tetramethylrhodamine ethyl ester perchlorate (TMRE, Cell Signaling Technology Europe, Leiden, The Netherlands). Cells were exposed for 4 h to derivatives 3–5 and 10–12. The procedure followed a previously described protocol. A concentration of 50 µM carbonyl cyanide 3-chlorophenylhydrazone (CCCP, Cell Signaling Technology Europe, Leiden, The Netherlands) was used as a positive control. Data were evaluated from at least three independent experiments (performed in duplicate) and presented as a normalized signal to the untreated control, according to the manufacturer’s calculation protocol.

HepG2 cells [6] = test: Mitochondrial membrane potential (TMRE assay) on HepG2; format: cell-based, human; settings: HepG2, 4 h exposure, LOAEL concentrations
Experimental: as §5, §7

caspase 8 = test: Caspase 8 activity in SH-SY5Y (multiplex activity assay kit); format: cell-based, human; settings: 4 h treatment, LOAEL concentrations
Experimental: as §3
Caspases (cysteine-aspartic proteases) caspase 3, caspase 8, and caspase 9 were simultaneously analyzed in cells using specific substrate and fluorogenic indicators from the Caspase-3, Caspase-8, and Caspase-9 Multiplex Activity Assay Kit (Abcam, Cambridge, UK). […] The procedure followed a previously described protocol. […] Data were evaluated from at least three independent experiments (performed in duplicate or triplicate), according to the manufacturer’s assay kit calculation protocol, and presented as a normalized signal to the untreated control.

SH-SY5Y cells [7] = settings: cited from earlier work
[8] = 4 h exposure, read-out: IC50 ± SE SH-SY5Y 4 h
[9] = 24 h exposure, read-out: IC50 ± SE SH-SY5Y 24 h
[10] = read-out: IC50 ± SE SH-SY5Y 1 h, 1 h exposure
[11] = HepG2, read-out: IC50 ± SE HepG2 1 h, 1 h exposure
[12] = HepG2, 4 h exposure, read-out: IC50 ± SE HepG2 4 h
[13] = HepG2, 24 h exposure, read-out: IC50 ± SE HepG2 24 h

T2 sequence (P06276 29-602): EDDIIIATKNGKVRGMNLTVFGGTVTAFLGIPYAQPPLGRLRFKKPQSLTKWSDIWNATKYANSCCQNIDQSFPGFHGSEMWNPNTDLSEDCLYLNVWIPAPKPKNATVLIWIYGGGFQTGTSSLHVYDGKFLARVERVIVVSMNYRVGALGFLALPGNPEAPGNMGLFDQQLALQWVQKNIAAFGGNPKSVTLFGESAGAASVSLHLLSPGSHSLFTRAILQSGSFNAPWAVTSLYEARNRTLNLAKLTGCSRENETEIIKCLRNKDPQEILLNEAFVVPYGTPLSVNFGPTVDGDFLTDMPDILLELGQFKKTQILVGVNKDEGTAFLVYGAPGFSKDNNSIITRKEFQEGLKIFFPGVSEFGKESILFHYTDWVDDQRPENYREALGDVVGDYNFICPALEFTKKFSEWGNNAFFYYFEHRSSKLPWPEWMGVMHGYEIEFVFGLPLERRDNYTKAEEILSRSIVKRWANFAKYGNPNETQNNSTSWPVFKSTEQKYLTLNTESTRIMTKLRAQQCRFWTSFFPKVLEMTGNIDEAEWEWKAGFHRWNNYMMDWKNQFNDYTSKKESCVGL
T1 sequence (P22303 32-617 isoform P22303-2 limits assumed): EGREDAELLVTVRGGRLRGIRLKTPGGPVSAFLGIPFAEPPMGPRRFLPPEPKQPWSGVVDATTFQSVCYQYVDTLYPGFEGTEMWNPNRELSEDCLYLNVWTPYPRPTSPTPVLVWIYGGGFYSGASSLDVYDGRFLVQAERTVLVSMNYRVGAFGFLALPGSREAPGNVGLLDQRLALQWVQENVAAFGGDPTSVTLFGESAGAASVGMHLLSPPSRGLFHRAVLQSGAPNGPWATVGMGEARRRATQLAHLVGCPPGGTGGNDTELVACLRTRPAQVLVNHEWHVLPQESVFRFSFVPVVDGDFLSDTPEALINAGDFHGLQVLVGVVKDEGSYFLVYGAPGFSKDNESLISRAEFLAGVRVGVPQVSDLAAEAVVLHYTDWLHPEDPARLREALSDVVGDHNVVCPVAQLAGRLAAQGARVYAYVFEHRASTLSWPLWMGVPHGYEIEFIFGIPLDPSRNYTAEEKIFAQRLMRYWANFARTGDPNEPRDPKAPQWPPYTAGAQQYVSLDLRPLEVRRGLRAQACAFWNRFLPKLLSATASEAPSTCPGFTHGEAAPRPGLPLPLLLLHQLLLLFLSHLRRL

Compound	Ki (human AChE) [µM]	Ki (AChE)/Ki (BChE) (human AChE)	Ki (human BChE) [µM]	IC50 (SH-SY5Y cells [1]; [8]) [µM]	IC50 (SH-SY5Y cells [1]; [9]) [µM]	IC50 (SH-SY5Y cells [1]; [10]) [µM]	IC50 (HepG2 cells [2]; [11]) [µM]	IC50 (HepG2 cells [2]; [12]) [µM]	IC50 (HepG2 cells [2]; [13]) [µM]	LDH release (SH-SY5Y cells [3])	LDH release (HepG2 cells [4])	Mitochondrial membrane potential (ΔΨm) (SH-SY5Y cells [5])	Mitochondrial membrane potential (ΔΨm) (HepG2 cells [6])	Caspase 8 activation (caspase 8)	IC50 (SH-SY5Y cells [7]; 24 h exposure, controls, read-out: IC50 ± SE SH-SY5Y 24 h) [µM]	IC50 (SH-SY5Y cells [7]; read-out: IC50 ± SE SH-SY5Y 1 h, 1 h exposure, controls) [µM]	IC50 (SH-SY5Y cells [7]; [9]) [µM]
CCCCCCCCCCCCCCCC[N+]12CCC(CC1)/C(=N\O)C2 [Compound 12]	19 ± 1.6	0.4	48.6 ± 3.8	78 ± 1	54 ± 1	89 ± 1	40 ± 1	20 ± 1	7 ± 1	strongest effect; also recorded: significant LDH release	significant LDH release	decrease in the mitochondrial membrane potential	decrease in the mitochondrial membrane potential	significant activation			
CCCCCCCCCCCCCC[N+]12CCC(CC1)/C(=N\O)C2 [Compound 11]	7 ± 0.9	0.8	8.8 ± 1	83 ± 3	60 ± 1	125 ± 2	37 ± 1	18 ± 1	11 ± 1	strongest effect; also recorded: significant LDH release	significant LDH release	decrease in the mitochondrial membrane potential	decrease in the mitochondrial membrane potential	significant activation			
CN[C@@H]1C[C@H]2O[C@@](C)([C@@H]1OC)n1c3ccccc3c3c4c(c5c6ccccc6n2c5c31)C(=O)NC4 [SS, staurosporine]															0.12 ± 0.01	≥ 4	
CCCCCCCCCCCC[N+]12CCC(CC1)/C(=N\O)C2 [Compound 10]	14.3 ± 1.8	2.6	5.4 ± 0.8	174 ± 1		208 ± 3	218 ± 1	81 ± 1	15 ± 1	strongest effect; also recorded: significant LDH release	significant LDH release	decrease in the mitochondrial membrane potential	decrease in the mitochondrial membrane potential	significant activation			147 ± 1
